The values that follow come from patent publication US7435837B2, “Dihydrobenzofuranyl alkanamine derivatives and methods for using same” (Wyeth, priority 2003, dated 2008).

In data set [1] the target is T1, human 5-hydroxytryptamine-2C (h5-HT2C) receptor (Homo sapiens, UniProt P28335).
T1 construct: expressed in transfected cells; host or cells: CHO (Chinese Hamster Ovary) cells; membranes
T1 sequence (P28335 33-458): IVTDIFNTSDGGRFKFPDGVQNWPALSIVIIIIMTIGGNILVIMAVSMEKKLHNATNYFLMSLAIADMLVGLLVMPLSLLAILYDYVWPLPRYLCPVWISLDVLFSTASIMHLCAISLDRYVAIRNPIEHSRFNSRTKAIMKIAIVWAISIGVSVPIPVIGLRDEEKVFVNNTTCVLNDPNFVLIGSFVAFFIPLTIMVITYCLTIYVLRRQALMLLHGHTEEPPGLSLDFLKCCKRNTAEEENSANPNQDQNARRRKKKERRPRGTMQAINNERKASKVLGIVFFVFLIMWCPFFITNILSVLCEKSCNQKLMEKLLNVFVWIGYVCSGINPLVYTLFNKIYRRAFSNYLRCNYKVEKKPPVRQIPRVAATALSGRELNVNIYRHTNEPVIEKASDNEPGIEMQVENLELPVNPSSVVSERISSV
Briefly: [125I]DOI binding to membranes of CHO cells expressing the human 5-HT2C receptor. The conditions noted are these: [125I]DOI radioligand, CHO cell membranes, room temperature 60 min; read-out: 5-HT2C Affinity Ki.

The target of the next data set is T2, human 5-HT2C receptor (Homo sapiens, UniProt P28335).
T2 sequence (P28335 33-458): T1 sequence (P28335 33-458)
The data set can be described thus: 5-HT2C receptor-stimulated calcium mobilization (FLIPR) in CHO cells.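 As to all read-outs here: Fluo-3-AM fluorescence read on FLIPR every 1 s, agonist added after 10 baseline reads, response taken as peak minus lowest raw fluorescence count.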 The settings on record: for Emax: CHO, read-out: 5-HT2C Function Emax (%); for EC50: calcium mobilization, CHO cells stably expressing human 5-HT2C, read-out: 5-HT2C Function EC50. The data set is classed as cell-based.

Setting [2] is: percentage of the response observed with a maximally effective concentration of 5-HT.

Where a name gives a salt, the structure may show the parent alone.

By melting point is commonly meant the temperature, or range, at which the solid turns liquid. In turn, `NCC1Cc2cccc(-c3ccc(Cl)cc3Cl)c2O1` (racemic) (as salt: hydrochloride) [Example 83, (±)-1-[7-(2,4-dichlorophenyl)-2,3-dihydro-1-benzofuran-2-yl]methanamine] registered a melting point of 198 to 200 °C. The same measure, in the same setting: as for `CC(C)(C)CCc1cccc2c1OC(CN)C2` (racemic) (as salt: hydrochloride) [Example 118, (±)-1-[7-(3,3-dimethylbutyl)-2,3-dihydro-1-benzofuran-2-yl]methanamine], the figure is 158 to 160 °C; as for `NCC1Cc2cccc(-c3ccccc3C(F)(F)F)c2O1` (single isomer, unassigned; (-)) (as salt: hydrochloride) [Example 54, (−)-1-{7-[2-(trifluoromethyl)phenyl]-2,3-dihydro-1-benzofuran-2-yl}methanamine], 109 to 111 °C.

Regarding `Cc1ccc(Cl)cc1-c1cc(F)cc2c1O[C@@H](CN)C2` (as salt: hydrochloride) [Example 548, {[(2R)-7-(5-chloro-2-methylphenyl)-5-fluoro-2,3-dihydro-1-benzofuran-2-yl]methyl}amine], the melting point fell in the range of 148 to 150 °C. Still for that read-out and setting: the value for `COc1ccc(-c2cccc3c2OC(CN)C3)c(OC)c1` (single isomer, unassigned; (-)) (as salt: hydrochloride) [Example 144, (−)-1-[7-(2,4-dimethoxyphenyl)-2,3-dihydro-1-benzofuran-2-yl]methanamine] was 166 to 168 °C; that for `Cc1cccc(-c2cccc3c2OC(CN)C3)c1` (single isomer, unassigned; (-)) (as salt: hydrochloride) [Example 43, (−)-1-[7-(3-methylphenyl)-2,3-dihydro-1-benzofuran-2-yl]methanamine] was 194 to 196 °C.

`Cc1ccccc1-c1cccc2c1CC(CN)O2` (racemic) (as salt: hydrochloride) [Example 4, (±)-1-[4-(2-methylphenyl)-2,3-dihydro-1-benzofuran-2-yl]methanamine] showed a melting point of 231 to 234 °C.

`CC(C)(C)c1cccc2c1OC(CN)C2` (single isomer, unassigned; (-)) (as salt: hydrochloride) [Example 25, (−)-1-(7-tert-butyl-2,3-dihydro-1-benzofuran-2-yl)methanamine] displayed a melting point of 178 to 180 °C. Take `Cc1ccccc1-c1cccc2c1OC(CN)C2` (racemic) (as salt: hydrochloride) [Example 47, (±)-1-[7-(2-methylphenyl)-2,3-dihydro-1-benzofuran-2-yl]methanamine]: the melting point is above 200 °C. Same read-out and setting: the value for `NCC1Cc2cccc(-c3ccc(Cl)cc3)c2O1` (single isomer, unassigned; (-)) (as salt: hydrobromid) [Example 78, (−)-1-[7-(4-chlorophenyl)-2,3-dihydro-1-benzofuran-2-yl]methanamine] was 233 to 235 °C; that for `NCC1Cc2cccc(-c3cccc(C(F)(F)F)c3)c2O1` (racemic) (as salt: hydrochloride) [Example 69, (±)-1-{7-[3-(trifluoromethyl)phenyl]-2,3-dihydro-1-benzofuran-2-yl}methanamine] was 172 to 174 °C; that for `NCC1Cc2cccc(-c3ccccc3C(F)(F)F)c2O1` (racemic) (as salt: hydrochloride) [Example 53, (±)-1-{7-[2-(trifluoromethyl)phenyl]-2,3-dihydro-1-benzofuran-2-yl}methanamine] was 204 to 205 °C. The same measure, in the same setting: the value for `NCC1Cc2cccc(-c3ccsc3)c2O1` (racemic) (as salt: hydrochloride) [Example 44, (±)-1-(7-thien-3-yl-2,3-dihydro-1-benzofuran-2-yl)methanamine] was above 200 °C; that for `Cc1ccc(-c2cccc3c2OC(CN)C3)cc1` (single isomer, unassigned; (+)) (as salt: hydrobromid) [Example 71, (+)-1-[7-(4-methylphenyl)-2,3-dihydro-1-benzofuran-2-yl]methanamine] was above 250 °C.

As to `NCC1Cc2cccc(-c3ccccc3F)c2O1` (single isomer, unassigned; (+)) (as salt: hydrochloride) [Example 51, (+)-1-[7-(2-fluorophenyl)-2,3-dihydro-1-benzofuran-2-yl]methanamine], the melting point lay within 227 to 228 °C. Still for that read-out and setting: as for `NCC1Cc2cccc(-c3cccc(C(F)(F)F)c3)c2O1` (single isomer, unassigned; (-)) (as salt: hydrochloride) [Example 135, (−)-1-{7-[3-(trifluoromethyl)phenyl]-2,3-dihydro-1-benzofuran-2-yl}methanamine], the figure is 184 to 186 °C. Still for that read-out and setting: as for `NCC1Cc2cccc(-c3cccc(Cl)c3)c2O1` (single isomer, unassigned; (-)) (as salt: hydrobromid) [Example 67, (−)-1-[7-(3-chlorophenyl)-2,3-dihydro-1-benzofuran-2-yl]methanamine], the figure is 189 to 190 °C; as for `NCC1Cc2cc(Cl)cc(-c3ccccc3)c2O1` (racemic) (as salt: hydrochloride) [Example 84, (±)-1-(5-chloro-7-phenyl-2,3-dihydro-1-benzofuran-2-yl)methanamine], 258 °C (dec.).

Consider `NCC1Cc2c(cccc2-c2ccccc2)O1` (single isomer, unassigned; (-)) (as salt: hydrobromid) [Example 3, (−)-1-(4-phenyl-2,3-dihydro-1-benzofuran-2-yl)methanamine], for which the melting point lay within 227 to 228 °C. As for `Cc1ccccc1-c1cccc2c1OC(CN)C2` (single isomer, unassigned; (+)) (as salt: hydrochloride) [Example 48, (+)-1-[7-(2-methylphenyl)-2,3-dihydro-1-benzofuran-2-yl]methanamine], the melting point is 211 to 212 °C. The same measure, in the same setting: the value for `NCC1Cc2cc(Cl)cc(-c3ccsc3)c2O1` (racemic) (as salt: hydrochloride) [Example 90, (±)-(5-chloro-7-thien-3-yl-2,3-dihydro-1-benzofuran-2-yl)methylamine] was 230 °C (dec.). `CC1(CN)Cc2cc(Cl)cc(-c3ccccc3)c2O1` (racemic) (as salt: hydrochloride) [Example 112, (±)-1-(5-chloro-2-methyl-7-phenyl-2,3-dihydro-1-benzofuran-2-yl)methanamine] came in with a melting point of 222 to 225 °C. Still for that read-out and setting: as for `Cc1ccccc1-c1ccc(F)c2c1OC(CN)C2` (racemic) (as salt: hydrochloride) [Example 99, (±)-1-[4-fluoro-7-(2-methylphenyl)-2,3-dihydro-1-benzofuran-2-yl]methanamine], the figure is 228 to 231 °C. On the same count and under the same terms, as for `CNCC1Cc2cc(Cl)cc(C3CCCCC3)c2O1` (racemic) (as salt: hydrochloride) [Example 12, (±)-N-[(5-chloro-7-cyclohexyl-2,3-dihydro-1-benzofuran-2-yl)methyl]-N-methylamine], the figure is 125 to 128 °C. The term Ki denotes a measure of affinity in units of concentration, obtained from inhibition or displacement. The term Emax denotes the greatest response seen or fitted, relative to the assay's reference. A word on the EC50: it is the concentration at which the effect is half-maximal. With `NCC1Cc2cccc(-c3ccc(Cl)cc3Cl)c2O1` (single isomer, unassigned; (-)) [Example 149, (−)-1-[7-(2,4-dichlorophenyl)-2,3-dihydro-1-benzofuran-2-yl]methanamine], the Ki in data set [1] worked out at 0.15 nM. The Emax on human 5-HT2C receptor (setting [2]) stood at 100%. At human 5-HT2C receptor, the EC50 is 0.97 nM. For `NCC1Cc2cc(C(F)(F)F)cc(-c3ccoc3)c2O1` (racemic) [Example 341, (±)-{[7-(3-furyl)-5-(trifluoromethyl)-2,3-dihydro-1-benzofuran-2-yl]methyl}amine] the same measures were 36 nM, 90% and 231 nM. As to `NCC1Cc2cccc(-c3ccc(Cl)cc3Cl)c2O1` (single isomer, unassigned; (+)) [Example 150, (+)-1-[7-(2,4-dichlorophenyl)-2,3-dihydro-1-benzofuran-2-yl]methanamine], in data set [1], the Ki turned out to be 4.1 nM. In addition, on human 5-HT2C receptor, the EC50 is 74 nM. Besides, the “5-HT2C Function Emax (%)” value at human 5-HT2C receptor (setting [2]) stood at 100%.

Turning to `CNCC1Cc2cccc(-c3ccccc3OC)c2O1` (racemic) [Example 413, (±)-[(N-methyl-1-[7-(2-methoxyphenyl)-2,3-dihydro-1-benzofuran-2-yl]methanamine], the Ki in data set [1] is 21 nM. Besides, the Emax on human 5-HT2C receptor (setting [2]) was determined as 90%. In addition, the EC50 at human 5-HT2C receptor was 8 nM.

For the compound `NCC1Cc2cc(F)cc(-c3ccccn3)c2O1` (racemic) [Example 205, (±)-[(5-fluoro-7-pyridin-2-yl-2,3-dihydro-1-benzofuran-2-yl)methyl]amine], the Ki in data set [1] worked out at 3 nM. In addition, the Emax at human 5-HT2C receptor (setting [2]) was determined as 80%. Besides, at human 5-HT2C receptor, the EC50 worked out at 280 nM.

Take `COc1cc2c(c(-c3cccc(Cl)c3Cl)c1)OC(CN)C2` (racemic) [Example 362, (±)-{[7-(2,3-dichlorophenyl)-5-methoxy-2,3-dihydro-1-benzofuran-2-yl]methyl}amine]: the Ki in data set [1] stood at 36 nM. For the same compound, the Emax at human 5-HT2C receptor (setting [2]) was determined as 70%. Further, the EC50 at human 5-HT2C receptor is 343 nM.
